The target in the first assay is histone deacetylase (HDAC Enzyme). In words: Inhibition of Histone Deacetylase Enzymatic Activity (Boc-Lys(Ac)-AMC, Fluor-de-Lys developer). Conditions: Table 9; read-out: HDAC Inhibition (IC50 μM) HDAC Enzyme. The format is biochemical. As for the experimental part:
The following protocol is used to assay the compounds of the invention.
The mixture is pre-incubated for 5 minutes at room temperature. The reaction is started by bringing the temperature to 37° C. and adding 16 μl substrate. Total reaction volume is 50 μl.
In the Tables 8, 9 and 10, A≦[…]<B≦0.1 μM; 0.1 μM<C≦1 μM; and 1 μM<D≦10 μM.
As to `O=C(NO)c1cnc(N2C[C@@H]3C[C@H]2CN3c2cccc(C(F)(F)F)n2)nc1` [N-hydroxy-2-((1S,4S)-5-(6-(trifluoromethyl)pyridin-2-yl)-2,5-diazabicyclo[2.2.1]heptan-2-yl)pyrimidine-5-carboxamide], the IC50 is under 0.05 µM.

On to `N#Cc1cccc(N2CC3CC2CN3c2ncc(C(=O)NO)cn2)c1` (stereo not shown) [2-(5-(3-cyanophenyl)-2,5-diazabicyclo[2.2.1]heptan-2-yl)-N-hydroxypyrimidine-5-carboxamide], for which the IC50 is under 0.05 µM.

Consider `COc1cccc(N2CC3CC2CN3c2ccc(C(=O)NO)cc2)c1` (stereo not shown) [N-hydroxy-4-(5-(3-methoxyphenyl)-2,5-diazabicyclo[2.2.1]heptan-2-yl)benzamide], for which the IC50 fell in the range of 0.1 to 1 µM.

Turning to `O=C(NO)c1cnc(N2C[C@@H]3C[C@H]2CN3c2ccccc2)nc1` [N-hydroxy-2-((1S,4S)-5-phenyl-2,5-diazabicyclo[2.2.1]heptan-2-yl)pyrimidine-5-carboxamide], the IC50 was in the range of 0.05 to 0.1 µM.

In the case of `O=C(NO)c1cnc(N2C[C@@H]3C[C@H]2CN3C(=O)OCC2CC2)nc1` [(1S,4S)-cyclopropylmethyl 5-(5-(hydroxycarbamoyl)pyrimidin-2-yl)-2,5-diazabicyclo[2.2.1]heptane-2-carboxylate], the IC50 is under 0.05 µM.

For `O=C(NO)c1cnc(N2C[C@@H]3C[C@H]2CN3c2ccc3nsnc3c2)nc1` [2-((1S,4S)-5-(benzo[c][1,2,5]thiadiazol-5-yl)-2,5-diazabicyclo[2.2.1]heptan-2-yl)-N-hydroxypyrimidine-5-carboxamide], the IC50 is under 0.05 µM.

Still in this assay, the particulars now being: Table 10; read-out: HDAC Inhibition (IC50 μM) HDAC Enzyme.
In the case of `O=C(CCCCCN1C(=O)CN=C(c2ccccc2)c2ccccc21)NO` [(Z)-N-hydroxy-6-(2-oxo-5-phenyl-2,3-dihydro-1H-benzo[e][1,4]diazepin-1-yl)hexanamide], the IC50 lay in the range of 0.1 to 1 µM.

As for `CN1CCc2[nH]c3ccc(C(=O)NO)cc3c2C1` [N-hydroxy-2-methyl-2,3,4,5-tetrahydro-1H-pyrido[4,3-b]indole-8-carboxamide], the IC50 fell in the range of 1 to 10 µM.

On to `O=C(CCCCCON=C1c2ccccc2CCc2ccccc21)NO`, for which the IC50 was in the range of 0.1 to 1 µM.

`O=C(NO)c1ccc(CN2C(=O)c3ccccc3CCc3ccccc32)cc1` [N-hydroxy-4-((6-oxo-11,12-dihydrodibenzo[b,f]azocin-5(6H)-yl)methyl)benzamide]: the IC50 fell in the range of 0.1 to 1 µM.

For `O=C(NO)c1cc2c(cn1)[nH]c1ccccc12` [N-hydroxy-9H-pyrido[3,4-b]indole-3-carboxamide], the IC50 was 1 to 10 µM.

Take `O=C(NO)c1cnc(NCC2c3ccccc3CCc3ccccc32)nc1`: the IC50 is under 0.05 µM.

In the case of `O=C(CCCCCCN1C(=O)c2ccccc2Sc2ccccc21)NO` [N-hydroxy-7-(11-oxodibenzo[b,f][1,4]thiazepin-10(11H)-yl)heptanamide], the IC50 was under 0.05 µM.

Consider `O=C(NO)c1ccc(CN(c2ccccc2)c2ccccc2)cc1` [4-((diphenylamino)methyl)-N-hydroxybenzamide], for which the IC50 fell in the range of 0.1 to 1 µM.

`O=C(NO)c1cccc(CNC2c3ccccc3CCc3ccccc32)c1`: the IC50 lay within 0.1 to 1 µM.

In the case of `O=C(CCCCCCON=C1c2ccccc2CCc2ccccc21)NO`, the IC50 was in the range of 0.1 to 1 µM.

As to `O=C(NO)c1ccc(CN2c3ccccc3CCc3ccccc32)cc1` [4-((10,11-dihydro-5H-dibenzo[b,f]azepin-5-yl)methyl)-N-hydroxybenzamide], the IC50 is under 0.05 µM.

`O=C(NO)c1ccc(OCCN2C(=O)c3ccccc3Oc3ccccc32)cc1F`: the IC50 is 0.05 to 0.1 µM.

For “(Z)-N-(5H-dibenzo[b,f]azepin-5-yl)methyl)benzyl)-N-hydroxyformamide”, the IC50 was 0.1 to 1 µM.

Take `O=C(CCCCCCN1C(=O)c2ccccc2Oc2ccccc21)NO` [N-hydroxy-7-(11-oxodibenzo[b,f][1,4]oxazepin-10(11H)-yl)heptanamide]: the half-maximal inhibitory concentration (IC50) was under 0.05 µM.

In the case of `O=C(NO)c1ccc(CN2c3ccccc3C=Cc3ccccc32)cc1` [(Z)-4-((5H-dibenzo[b,f]azepin-5-yl)methyl)-N-hydroxybenzamide], the IC50 is under 0.05 µM.

For `O=C(NO)c1cnc(NC2c3ccccc3C=C(F)c3ccccc32)nc1` (stereo not shown), the IC50 was under 0.05 µM.

As for `O=C(NO)c1ccc(CCCN2C(=O)c3ccccc3Oc3ccccc32)cc1` [N-hydroxy-4-(3-(11-oxodibenzo[b,f][1,4]oxazepin-10(11H)-yl)propyl)benzamide], the IC50 is 0.05 to 0.1 µM.

For the compound `CN1C(=O)CN=C(c2ccccc2)c2ccc(CCC(=O)NO)cc21` [(Z)-N-hydroxy-3-(1-methyl-2-oxo-5-phenyl-2,3-dihydro-1H-benzo[e][1,4]diazepin-8-yl)propanamide], the IC50 lay in the range of 0.1 to 1 µM.

For `O=C(NO)c1cnc(N2CCN(C3c4ccccc4CCc4ccccc43)CC2)nc1`, the IC50 fell in the range of 0.1 to 1 µM.

The same assay, now with this note: read-out: HDAC Inhibtion (IC50 μM) HDAC Enzyme.
For the compound `CSc1cccc2c1Oc1ccccc1N=C2c1ccc(C(=O)NO)cc1` [(Z)-N-hydroxy-4-(4-(methylthio)dibenzo[b,f][1,4]oxazepin-11-yl)benzamide], the IC50 is under 0.05 µM.

Consider `O=C(NO)c1ccc(C2=Nc3cccc(F)c3Oc3ccccc32)cc1` [(Z)-4-(6-fluorodibenzo[b,f][1,4]oxazepin-11-yl)-N-hydroxybenzamide], for which the IC50 fell in the range of 0.05 to 0.1 µM.

Regarding `O=C(NO)c1cnc(N2CCN(C3=Nc4ccccc4Oc4ccc(Cl)cc43)CC2)nc1` [(E)-2-(4-(2-chlorodibenzo[b,f][1,4]oxazepin-11-yl)piperazin-1-yl)-N-hydroxypyrimidine-5-carboxamide], the IC50 was under 0.05 µM.

In the case of `O=C(NO)c1ccc(C2=Nc3ccc(Cl)cc3Oc3ccccc32)cc1` [(Z)-4-(7-chlorodibenzo[b,f][1,4]oxazepin-11-yl)-N-hydroxybenzamide], the IC50 fell in the range of 0.1 to 1 µM.

Turning to `O=C(NO)c1ccc(C2=Nc3ccccc3S(=O)(=O)c3ccccc32)cc1`, the IC50 fell in the range of 1 to 10 µM.

In the case of `O=C(NO)c1ccc(C2=Nc3ccccc3N(CCN3CCOCC3)c3ncccc32)cc1` [(Z)-N-hydroxy-4-(11-(2-morpholinoethyl)-11H-benzo[b]pyrido[2,3-e][1,4]diazepin-5-yl)benzamide], the IC50 lay within 0.05 to 0.1 µM.

In the case of `CC(C)N1c2ccccc2N=C(c2ccc(C(=O)NO)cc2)c2ccccc21` [(Z)-N-hydroxy-4-(5-isopropyl-5H-dibenzo[b,e][1,4]diazepin-11-yl)benzamide], the IC50 is under 0.05 µM.

With `Cc1cccc2c1Oc1ccccc1C(c1ccc(C(=O)NO)cc1)=N2` [(Z)-N-hydroxy-4-(6-methyldibenzo[b,f][1,4]oxazepin-11-yl)benzamide], the IC50 lay within 0.1 to 1 µM.

Consider `O=C(NO)c1ccc(C2=Nc3ccc(C(F)(F)F)cc3Oc3ccccc32)cc1` [(Z)-N-hydroxy-4-(7-(trifluoromethyl)dibenzo[b,f][1,4]oxazepin-11-yl)benzamide], for which the IC50 was in the range of 0.1 to 1 µM.

As for `CS(=O)(=O)c1cccc2c1Oc1ccccc1N=C2c1ccc(C(=O)NO)cc1` [(Z)-N-hydroxy-4-(4-(methylsulfonyl)dibenzo[b,f][1,4]oxazepin-11-yl)benzamide], the IC50 is under 0.05 µM.

As to `O=C(NO)c1ccc(C2=Nc3ccccc3Oc3cc(C(F)(F)F)ccc32)cc1` [(Z)-N-hydroxy-4-(3-(trifluoromethyl)dibenzo[b,f][1,4]oxazepin-11-yl)benzamide], the IC50 lay within 0.05 to 0.1 µM.

As to `O=C(NO)c1ccc(-c2ccc3c(c2)C(N2CCOCC2)=Nc2ccccc2O3)cc1` [(E)-N-hydroxy-4-(11-morpholinodibenzo[b,f][1,4]oxazepin-2-yl)benzamide], the IC50 was under 0.05 µM.

Source of the values: patent publication US8399452B2, “Dibenzo[b,f][1,4]oxazepin-11-yl-N-hydroxybenzamides as HDAC inhibitors” (Methylgene Inc., priority 2006, dated 2013).
